Among the data in patent EP4782453A1 (Beyang Therapeutics Co., Ltd., priority 2023, dated 2025) are IC50 values, retold here.

Assay [1] deals with MOLM-13 (carrying MLL-AF9). In words: Inhibition of proliferation of human tumor cells (Alamar Blue, 7 days), MOLM-13. Type of assay: cell-based. The conditions noted are these: Homo sapiens, 168 h, MOLM-13 cells (carrying MLL-AF9), method calls the value GI50. From the text:
Experimental Example 2: Evaluation of Inhibitory Activity of Compounds Against Proliferation of Human Tumor Cells
• Human acute lymphoblastic leukemia cells MV-4-11, purchased from American Type Culture Collection, Catalog Number: CRL-9591; • Human acute myeloid leukemia cells MOLM-13, purchased from COBIOER BIOSCIENCES CO., LTD, Catalog Number: CBP60678; • Human acute myeloid leukemia cells KG-1a, purchased from American Type Culture Collection, Catalog Number: CCL-246.1; • Inverted Microscope, purchased from Olympus Tokyo; • Countess™ Automated Cell Counter, purchased from Invitrogen, Model: C10281; and • Multilabel Reader, purchased from Bio-Tek, Model: Synergy HT.
MV-4-11 cells were cultured in an IMDM medium containing 10% fetal bovine serum, KG-a cells were cultured in an IMDM medium containing 20% fetal bovine serum, or MOLM-13 cells were cultured in an RPMI-1640 medium containing 20% fetal bovine serum, each supplemented with 100 U·mL^-1 penicillin and 100 µg·mL^-1 streptomycin. These cells were cultured at 37°C with 5% CO2. The suspensions of individual cell lines were prepared in their respective media and seeded into 96-well plates at a density of 4,000 cells/well for MV-4-11 and MOLM-13 cells, or 3,000 cells/well for KG-1a cells. On the day of the experiment, a compound stock solution was diluted in a 3-fold or 4-fold gradient using DMSO. Each gradient-diluted stock solution was then further diluted 250-fold with a complete medium to prepare a series of working solutions at different concentrations. Subsequently, 100 µL of working solution (containing a 2-fold concentration series of the test compound) was added to each well, with duplicate wells set up for each concentration.
Seven days after compound addition (on Day 7), an Alamar Blue assay reagent (MCE, HY-111391 / CS-0040317) was added to measure the fluorescence intensity in each well. Wells containing the cells in the growth medium supplemented with 0.1% DMSO (Day 7) served as high-read control wells. The readouts from the wells containing the cells in the growth medium supplemented with 0.1% DMSO on the day of compound addition (Day 0) served as low-reading control well. GraphPad Prism software was used to calculate the concentration required to inhibit 50% of cell proliferation (GI50), which serves as a cell proliferation inhibition activity index.
Background: Alamar Blue is a resazurin reagent that responds to reducing activity.

For the next assay, the target named is T1, Menin-MLL (Homo sapiens, UniProt O00255).
T1 construct: His-Menin (M1-L615 end); purchased BIORTUS BP9210
T1 sequence (O00255 1-615 isoform O00255-1): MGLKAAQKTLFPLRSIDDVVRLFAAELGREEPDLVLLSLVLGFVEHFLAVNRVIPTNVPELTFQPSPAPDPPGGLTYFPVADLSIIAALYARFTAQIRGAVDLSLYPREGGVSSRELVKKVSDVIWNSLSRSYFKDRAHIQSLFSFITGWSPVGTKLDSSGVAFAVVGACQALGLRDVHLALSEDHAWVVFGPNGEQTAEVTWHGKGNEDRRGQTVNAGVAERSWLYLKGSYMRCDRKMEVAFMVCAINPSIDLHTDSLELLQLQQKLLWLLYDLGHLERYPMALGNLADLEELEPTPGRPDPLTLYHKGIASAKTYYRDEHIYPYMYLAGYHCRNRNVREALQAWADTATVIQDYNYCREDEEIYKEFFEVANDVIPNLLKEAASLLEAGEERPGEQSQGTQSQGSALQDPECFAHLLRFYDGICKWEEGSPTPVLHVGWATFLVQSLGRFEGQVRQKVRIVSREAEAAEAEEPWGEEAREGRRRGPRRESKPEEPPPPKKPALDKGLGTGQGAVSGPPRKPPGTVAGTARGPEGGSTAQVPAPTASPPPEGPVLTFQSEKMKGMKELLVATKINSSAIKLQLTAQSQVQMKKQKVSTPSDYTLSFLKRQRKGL
The assay is described as follows: Inhibitory activity against Menin-MLL binding (fluorescence polarization). The conditions noted are these: 150 nM His-Menin, 15 nM FITC-MLL, 25°C for 60 min. The method, boiled down:
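Fluorescence polarization competition: compound and 150 nM His-tagged menin (residues M1-L615) sit 15 min at 25 °C in pH 7.5 HEPES buffer with NaCl, DTT and BSA; 15 nM FITC-labelled MLL peptide then binds for 60 min. IC50 fitted sigmoidally from mP values, duplicate wells.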
For orientation: In fluorescence polarisation assays a small probe gives low polarisation when free and higher when bound to something large.

Setting [2] is: fluorescence polarization, read-out: Menin-MLL IC50.
Where [3] appears, read: Menin-MLL IC50, fluorescence polarization.

Where two headings read alike, the source gives them in different places.

For the molecule `CCN(C(=O)c1cc(F)ccc1-c1cc(C2CN([C@H](CCCN3CCC(NC(C)=O)CC3)C(C)C)C2)cc2c1cnn2C)C(C)C` [Example 405], the IC50 – broadly, the concentration needed to halve the response being measured – in assay [1] is 7.2 nM; at Menin-MLL (setting [2]), 1.6 nM.

Regarding `CCC(=O)NC1CCN(CCC[C@H](C(C)C)N2CC(c3cc(-c4ccc(F)cc4C(=O)N(CC)C(C)C)c4cnc(C)n4c3)C2)CC1` [Example 425], the IC50 stood at 9.9 nM in assay [1] and 2.7 nM on Menin-MLL (setting [2]).

Take `CCN(C(=O)c1cc(F)ccc1-c1cc(C2CN([C@H](CCCN3CCC(S(C)(=O)=O)CC3)C(C)C)C2)cc2c1cnn2C)C(C)C` [Example 406]: the IC50 in assay [1] was 37 nM; on Menin-MLL (setting [2]), 7 nM.

As for `CCN(C(=O)c1cc(F)ccc1-c1cc(C2CN([C@H](CCCN3CCC(OCCO)CC3)C(C)C)C2)cc2c1cnn2C)C(C)C` [Example 401-2], the IC50 was determined as 29 nM in assay [1] and 3.7 nM on Menin-MLL (setting [2]).

As for `COC[C@@H]1CN(CCC[C@H](C(C)C)N2CC(c3cc(-c4ccc(F)cc4C(=O)N(C(C)C)C(C)C)c4cnc(C)n4c3)C2)CCN1` [Example 505-2], the IC50 in assay [1] turned out to be 9.9 nM; at Menin-MLL (setting [2]), 1 nM.

`CCN(C(=O)c1cc(F)ccc1-c1cc(C2CCN(C[C@H]3CC[C@H](NS(=O)(=O)CC)CC3)C2)cc2cncn12)C(C)C` (mixture of isomers) [Example 25, N-ethyl-5-fluoro-N-isopropyl-2-[7-(1-{[(1r,4r)-4-ethanesulfonamidocyclohexyl]methyl}pyrrolidin-3-yl)imidazo[1,5-a]pyridin-5-yl]benzamide]: the half-inhibitory concentration (IC50) at Menin-MLL (setting [3]) was determined as 19 nM.

For the molecule `CC(C)N(CC(F)F)C(=O)c1cc(F)ccc1-c1cc(C2CCN(C[C@@H]3CC[C@@H](NC(=O)OC(C)(C)C)CO3)C2)cc2c1cnn2C` (stereo partly shown) [Example 158], on Menin-MLL (setting [2]), the half-maximal inhibitory concentration (IC50) was 165 nM.

For the molecule `CCS(=O)(=O)N[C@H]1CC[C@@H](CN2CC(c3cc(-c4ccc(F)cc4C(=O)N4[C@H](C)COC[C@H]4C)c4c(F)nc(C)n4c3)C2)CC1` [Example 198, N-[(1s,4s)-4-{[3-(8-{2-[(3R,5R)-3,5-dimethylmorpholin-4-carbonyl]-4-fluorophenyl}-1-fluoro-3-methylimidazo[1,5-a]pyridin-6-yl)azacyclobutan-1-yl]methyl}cyclohexyl]ethan-1-sulfonamide], the concentration for half-maximal inhibition (IC50) at Menin-MLL (read-out: Menin-MLL IC50, fluorescence polarization) was 4 nM.

On to `CC(=O)N1CCC([C@@H](C)N2CC(c3cc(-c4ccc(F)cc4C(=O)N4CCOC[C@H]4C)c4c(F)nc(C)n4c3)C2)CC1` [Example 257-1, 1-{4-[(1R)-1-[3-(1-fluoro-8-{4-fluoro-2-[(3R)-3-methylmorpholin-4-carbonyl]phenyl}-3-methylimidazo[1,5-a]pyridin-6-yl)azacyclobutan-1-yl]ethyl]piperidin-1-yl}ethan-1-one], for which the IC50 at Menin-MLL (setting [2]) came out at 131 nM.

Consider `CCN(C(=O)c1cc(F)ccc1-c1cc(N2CCN(CCc3ccc(-c4cc(OC)c(OC)nn4)cc3)CC2)cn2c(C)ncc12)C(C)C` [Compound 70, 2-[6-(4-{2-[4-(5,6-dimethoxypyridazin-3-yl)phenyl]ethyl}piperazin-1-yl)-3-methylimidazo[1,5-a]pyridin-8-yl]-N-ethyl-5-fluoro-N-(isopropyl)benzamide], for which, at Menin-MLL (setting [2]), the IC50 is 93 nM.

Consider `CCS(=O)(=O)N[C@H]1CC[C@H](CN2CCC(c3cc(-c4ccc(F)cc4C(=O)N(CC(F)F)C(C)C)c4cnc(C)cn34)CC2)CC1` [Example 154, N-(2,2-difluoroethyl)-5-fluoro-2-[3-methyl-6-(1-{[(1r,4r)-4-ethanesulfonamidocyclohexyl]methyl}piperidin-4-yl)pyrrolo[1,2-a]pyrazin-8-yl]-N-(isopropyl)benzamide], for which, on Menin-MLL (setting [3]), the IC50 was 166 nM.

As for `CCN(C(=O)c1cc(F)ccc1-c1cc(C2CN(C(CC[C@@H]3COCCN3CCO)C(C)C)C2)cn2c(C)ncc12)C(C)C` (stereo partly drawn) [Example 469, N-ethyl-5-fluoro-2-[6-(1-{1-[(3R)-4-(2-hydroxyethyl)morpholin-3-yl]-4-methylpentan-3-yl}azacyclobutan-3-yl)-3-methylimidazo[1,5-a]pyridin-8-yl]-N-(isopropyl)benzamide], the IC50 on Menin-MLL (setting [2]) is 11 nM.

On to `COCCN(C)CCC[C@@H](C(C)C)N1CC(c2cc(-c3ccc(F)cc3C(=O)N3CCOC[C@H]3C)c3c(F)nc(C)n3c2)C1` [Example 200-2], for which the IC50 on Menin-MLL (setting [2]) came out at 75 nM.

Regarding `CCN(C(=O)c1cc(F)ccc1-c1cc(C2CCN(C(=O)[C@H]3N[C@@H]4CC[C@H]3C4)C2)cn2cncc12)C(C)C` (stereo partly drawn) [Example 38, 2-(6-{1-[(1R,3S,4S)-2-azabicyclo[2.2.1]heptan-3-carbonyl]pyrrolidin-3-yl}imidazo[1,5-a]pyridin-8-yl)-N-ethyl-5-fluoro-N-(isopropyl)benzamide], the concentration for half-maximal inhibition (IC50) at Menin-MLL (setting [2]) amounted to 128 nM.

With `CCN(C(=O)c1cc(F)ccc1-c1cc(N2CCN(C(=O)C3NC4CCC3CC4)CC2)cn2c(C=O)ncc12)C(C)C` [Example 76, N-ethyl-5-fluoro-2-(3-formyl-6-{4-[(1R,3S,4S)-2-azabicyclo[2.2.2]octan-3-carbonyl]piperazin-1-yl}imidazo[1,5-a]pyridin-8-yl)-N-(isopropyl)benzamide], the concentration for half-maximal inhibition (IC50) at Menin-MLL (setting [3]) was 40 nM.

In the case of `CCN(C(=O)c1cc(F)ccc1-c1cc(C2CN(C(C[C@@H](O)CO)C(C)C)C2)cn2c(C)ncc12)C(C)C` (stereo partly drawn) [Example 438, 2-(6-{1-[(5R)-5,6-dihydroxyl-2-methylhexan-3-yl]azacyclobutan-3-yl}-3-methylimidazo[1,5-a]pyridin-8-yl)-N-ethyl-5-fluoro-N-(isopropyl)benzamide], on Menin-MLL (setting [2]), the IC50 was 14 nM.

Regarding `CCN(C(=O)c1cc(F)ccc1-c1cc(C2CCN(C[C@H]3CC[C@H](NS(=O)(=O)CC)CC3)C2)nc2c1cnn2C)C(C)C` (mixture of isomers) [Example 11, N-ethyl-5-fluoro-2-[1-methyl-6-(1-{[(1r,4r)-4-ethanesulfonamidocyclohexyl]methyl}pyrrolidin-3-yl)-1H-pyrazolo[3,4-b]pyridin-4-yl]-N-(isopropyl)benzamide], the concentration for half-maximal inhibition (IC50) on Menin-MLL (setting [3]) is 155 nM.

In the case of `CNC(=O)N1CCC(CN2CC(c3cc(-c4ccc(F)cc4C(=O)N4CCOC[C@H]4C)c4cnn(C)c4c3)C2)CC1` [Example 172], the half-inhibitory concentration (IC50) on Menin-MLL (setting [2]) stood at 98 nM.

`COCC(C1CCOCC1)N1CC(c2cc(-c3ccc(F)cc3C(=O)N3CCOC[C@H]3C)c3cnc(C)n3c2)C1` (stereo partly shown) [Example 256]: the IC50 on Menin-MLL (setting [2]) stood at 189 nM.

As to `COC1(C(=O)N2CCC(CN3CC(c4cc(-c5ccc(F)cc5C(=O)N5CCOC[C@H]5C)c5c(F)nc(C)n5c4)C3)CC2)CC1` [Example 262], on Menin-MLL (setting [2]), the IC50 amounted to 257 nM.

Molecule `CC[C@@H](C)[C@H](NC)C(=O)N1CC(c2cc(-c3ccc(F)cc3C(=O)N(CC)C(C)C)c3c(F)nc(C)n3c2)C1` [Example 318] had an IC50 on Menin-MLL (setting [3]) of 39 nM.

Regarding `Cc1ncc2c(-c3ccc(F)cc3C(=O)N(C)C(C)C)cc(C3CN([C@@H](CCCN4CCN(CCO)CC4)C(C)C)C3)cn12` [Example 448-1], the IC50 at Menin-MLL (setting [2]) stood at 120 nM.

The molecule `CCN(C(=O)c1cc(F)ccc1-c1cc(C2CCN(C[C@]3(F)CC[C@H](NS(=O)(=O)CC)CC3)C2)cn2c(C)ncc12)C(C)C` (stereo partly shown) [Compound 51, N-ethyl-5-fluoro-2-[3-methyl-6-(1-{[(1r,4r)-4-ethanesulfonamido-1-fluorocyclohexyl]methyl}pyrrolidin-3-yl)imidazo[1,5-a]pyridin-8-yl]-N-(isopropyl)benzamide] gave an IC50 on Menin-MLL (setting [3]) of 64 nM.
